Tested on: L. donovani axenic amastigotes
Test: Leishmania axenic amastigote viability assay
Format: cell-based, Leishmania donovani
Details: Supplementary Table 1; read-out: Leishmania Axenic Amastigote EC50
Protocol: (§1) carried out as described above using 5%, 10% and 20% FBS in the media. To examine the effect of the methionine concentration on the potency of DDD806905 parasites were grown in the presence of drug and in the presence (or absence) of 20-fold excess methionine (0.3 g/l). IC50 curve fitting was undertaken in GraFit version 6.0 (Erithacus Software) using a four-parameter logistic dose-response curve (equation 6), with s the slope.
(§2) Leishmania Axenic Amastigote Assay
(§3) The Leishmania axenic amastigote assay was performed using the method published in Nühs et al 15.
(§4) Leishmania Intracellular Amastigote Assay
(§5) The intramacrophage Leishmania assay was performed using a modified version of the method described in De Rycker et al 16. […]
amphotericin B was included. Controls were as follows: columns 11 and 12: DMSO, columns 23 and 24: amphotericin B (final concentration 2 µM). 350 nl of compound was pre-dispensed into 384-well sterile intermediary plates. To the intermediary plates, 35 µl of THP-1 media was added and plates were shaken for >5 min to ensure complete mixing. THP-1 cells (8,000 per well, 50 µl) were plated into black clear-bottom 384-well plates (Corning) in presence of 20 nM phorbol 12-myristate 13- […]
in a humidified incubator for 75 h. The cells were then washed with 450 µl sterile phosphate buffered saline (PBS) supplemented with 1 mM CaCl2, 0.5 mM MgCl2, 0.1% (w/v) bovine serum albumin (PBS-A) and amastigotes were added to all wells at a multiplicity of infection of 5 (40,000 amastigotes per well). After 40 min at room temperature, plates were returned to the incubator.
Amastigotes were incubated in the presence of THP-1 macrophages for 16 h. Any remaining extracellular amastigotes were subsequently removed by washing with PBS-A followed by addition of 25 µl of the compound pre-dilutions using an Ipette-pro pipetting station (FluidX). The final dilution of each compound was 200-fold. Plates were incubated for 96 h and then washed (250 µl PBS-A) and fixed (4 % (v/v) formaldehyde-PBS, 30 min, room temperature). After fixation, the wells were washed with 250 µl PBS, stained (10 µg/ml DAPI, 0.4 µg/mL HCS Cellmask Deep Red in PBS + 0.1% (v/v) Triton X-100, 30 min, room temperature) and washed with 250 µl PBS. Finally, PBS + 0.05% (v/v) thimerosal was added to the wells, the plates were sealed and imaged on a high-content microscope (GE IN Cell 2000) using a 10x objective. Image analysis was carried out with GE IN Cell Analyzer 1000 Workstation using the “Multi Target Analysis” module. For each well, i) THP-1 cell count (cytotoxicity readout) and ii) average number of amastigotes per cell (potency readout) were […]

Compound | EC50
Cc1cc(C)c2cc(CNCCCNc3nc4ccccc4[nH]3)[nH]c2c1 [Compound 12] | > 50 µM
Cc1c(CNCCCNc2nc3ccccc3[nH]2)[nH]c2cc(Cl)cc(Cl)c12 [Compound 4] | 38 µM
OCc1c(Cl)cc(Cl)cc1CNCCCNc1nc2ccccc2[nH]1 [Compound 8] | > 50 µM
COc1cc(C(F)(F)F)cc2[nH]c(CNCCCNc3nc4ccccc4[nH]3)cc12 [Compound 9] | > 50 µM
Clc1ccc(Cl)c2[nH]c(CNCCCNc3nc4ccccc4[nH]3)cc12 [Compound 3] | > 50 µM
CCOc1c(Br)cc(Cl)cc1CNCCCNc1nc2ccccc2[nH]1 [Compound 16] | > 50 µM
FC(F)(F)c1cc(C(F)(F)F)c2cc(CNCCCNc3nc4ccccc4[nH]3)[nH]c2c1 [Compound 5] | 29 µM
CCOc1c(Cl)cc(Cl)cc1CNCCCNc1nc2ccccc2[nH]1 [Compound 15] | > 50 µM
COc1cccc2[nH]c(NCCCNCc3cc(Br)cc(Br)c3)nc12 [Compound 7] | > 50 µM
OCCn1c(CNCCCNc2nc3ccccc3[nH]2)cc2c(Cl)cc(Cl)cc21 [Compound 17] | 19 µM
CCOc1c(CNCCCNc2nc3ccccc3[nH]2)cc(Br)cc1OC [Compound 13] | > 50 µM

Tested on: L. donovani promastigotes
Test: Leishmania promastigote viability assay
Format: cell-based, Leishmania donovani
Details: Supplementary Table 1; read-out: Leishmania Promastigote EC50
Protocol: After suitable sample preparation, the
In vivo Leishmaniasis Animal Model […]
administered twice daily over the same interval.
Parasite load is expressed in Leishman-
Knock-out and overexpressor generation
Leishmania Promastigote Assay
Serum shift experiments were […]
as §1, §2, §3, §4, §5
amphotericin B was included. Controls were as follows: columns 11 and 12: DMSO, columns 23 and 24: amphotericin B (final concentration 2 µM). 350 nl of compound was pre-dispensed into 384-well sterile intermediary plates. To the intermediary plates, 35 µl of THP-1 media was added and plates were shaken for >5 min to ensure complete mixing. THP-1 cells (8,000 per well, 50 µl) were plated into black clear-bottom 384-well plates (Corning) in presence of 20 nM phorbol 12-myristate 13-

Compound | EC50
Cc1cc(C)c2cc(CNCCCNc3nc4ccccc4[nH]3)[nH]c2c1 [Compound 12] | 9.5 µM
Cc1c(CNCCCNc2nc3ccccc3[nH]2)[nH]c2cc(Cl)cc(Cl)c12 [Compound 4] | 1.3 µM
OCc1c(Cl)cc(Cl)cc1CNCCCNc1nc2ccccc2[nH]1 [Compound 8] | 33 µM
COc1cc(C(F)(F)F)cc2[nH]c(CNCCCNc3nc4ccccc4[nH]3)cc12 [Compound 9] | 7.8 µM
Clc1ccc(Cl)c2[nH]c(CNCCCNc3nc4ccccc4[nH]3)cc12 [Compound 3] | 7.1 µM
CCOc1c(Br)cc(Cl)cc1CNCCCNc1nc2ccccc2[nH]1 [Compound 16] | 4.9 µM
FC(F)(F)c1cc(C(F)(F)F)c2cc(CNCCCNc3nc4ccccc4[nH]3)[nH]c2c1 [Compound 5] | 6.2 µM
CCOc1c(Cl)cc(Cl)cc1CNCCCNc1nc2ccccc2[nH]1 [Compound 15] | 4.1 µM
COc1cccc2[nH]c(NCCCNCc3cc(Br)cc(Br)c3)nc12 [Compound 7] | 19 µM
OCCn1c(CNCCCNc2nc3ccccc3[nH]2)cc2c(Cl)cc(Cl)cc21 [Compound 17] | 0.87 µM
CCOc1c(CNCCCNc2nc3ccccc3[nH]2)cc(Br)cc1OC [Compound 13] | 19 µM

Molecular target: LdMetRS (Leishmania donovani, UniProt A0A3Q8IBX2)
Sequence (A0A3Q8IBX2 entry or part of it): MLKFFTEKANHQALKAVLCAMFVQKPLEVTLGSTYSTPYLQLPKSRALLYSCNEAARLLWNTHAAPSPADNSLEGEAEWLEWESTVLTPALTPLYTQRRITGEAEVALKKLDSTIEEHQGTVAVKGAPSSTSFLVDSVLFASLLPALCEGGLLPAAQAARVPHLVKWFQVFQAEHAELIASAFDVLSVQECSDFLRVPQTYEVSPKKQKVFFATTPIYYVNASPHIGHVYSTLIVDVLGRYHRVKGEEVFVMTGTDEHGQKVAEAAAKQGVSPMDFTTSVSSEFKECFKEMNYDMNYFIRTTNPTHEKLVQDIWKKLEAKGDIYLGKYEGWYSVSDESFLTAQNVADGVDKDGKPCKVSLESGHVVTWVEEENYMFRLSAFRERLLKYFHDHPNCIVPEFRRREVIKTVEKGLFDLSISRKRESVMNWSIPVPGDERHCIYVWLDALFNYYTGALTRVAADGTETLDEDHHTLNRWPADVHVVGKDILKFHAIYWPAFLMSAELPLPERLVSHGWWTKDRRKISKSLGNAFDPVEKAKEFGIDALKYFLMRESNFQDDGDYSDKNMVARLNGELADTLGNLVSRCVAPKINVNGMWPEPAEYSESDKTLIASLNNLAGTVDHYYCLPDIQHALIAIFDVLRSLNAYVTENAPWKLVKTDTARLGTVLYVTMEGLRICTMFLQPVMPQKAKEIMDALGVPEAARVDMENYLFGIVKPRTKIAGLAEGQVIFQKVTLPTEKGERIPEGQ
Test: LdMetRS biochemical enzyme assay (BIOMOL Green)
Details: Supplementary Table 1; read-out: LdMetRS IC50
Protocol: LdMetRS Assay Development and Kinetic Parameter Determinations
Activity of the LdMetRS enzyme was determined by monitoring levels of pyrophosphate released during the first step of the enzymatic reaction. The pyrophosphate formed was converted to two inorganic phosphate molecules using a pyrophosphatase enzyme and levels of the resulting phosphate molecules measured using the BIOMOL® Green reagent (Enzo Life Sciences) 2.
Following optimization of the assay buffer and determination of the enzyme linearity, 384-well plate based assays were carried out at room temperature in a 50 μl reaction volume containing 30 mM Tris, pH 8.0, 140 mM NaCl, 30 mM KCl, 40 mM MgCl2, 0.01% (v/v) Brij-35, 1 mM DTT, 1 U/ml pyrophosphatase, 50 nM recombinant LdMetRS, and varying concentrations of substrates. Michaelis constants for the ATP and methionine substrates were determined in an end point assay using the above buffer and enzyme conditions. Data were fitted to the modified Michaelis-Menten equations […]
Equation 1 (Hill equation): […]
Equation 2 (High substrate inhibition Michaelis-Menten equation): […]
LdMetRS Inhibitor Studies
All test compounds were solubilized in 100% DMSO to a concentration of 10 mM. To generate IC50 data for the compounds, assay ready plates containing 10-point inhibitor curves (half-log serial dilutions) were prepared using an Echo® 550 (Labcyte).
Following preparation of the inhibitor curves, assays were carried out at room temperature in clear, flat bottom, polystyrene, 384-well plates (Greiner). Each assay was performed in a 50 μl reaction volume containing 30 mM Tris; pH 8.0, 140 mM NaCl, 30 mM KCl, 40 mM MgCl2, 0.01% (v/v) Brij-35, 1 mM DTT, 1 U/ml pyrophosphatase, 50 nM recombinant LdMetRS, 50 µM methionine and 100 µM […]
Assays were performed by adding 25 μl buffer with enzyme to assay plates (with buffer only added to ‘no enzyme’ control wells) before the reaction was initiated with the addition of a 25 μl mix containing methionine, ATP and pyrophosphatase to all wells. Following a 120 min reaction at room temperature the assay was stopped with the addition of 50 μl BIOMOL® Green. The BIOMOL® Green signal was allowed to develop for 30 min before the absorbance of each well was read at 650 nm using an EnVision multilabel plate reader (PerkinElmer Life Sciences). All liquid dispensing steps were carried out using a Thermo Scientific WellMate dispenser (Matrix).
ActivityBase from IDBS (version 8.0.5.4) was used for data processing and analysis. All IC50 curve fitting was undertaken using ActivityBase XE (version 7.7.1) from IDBS. A four-parameter logistic dose-response curve was utilized with prefit used for all four parameters.
For DDD806905 Kiapp determinations, data fitting to the Morrison equation (equation 3) was carried out using GraFit v6.0 (Erithacus Software). It should be noted that data for fitting to the Morrison equation was normalised to a ‘100 µM DDD806905’ control rather than a ‘no enzyme’ control as […]
Equation 3 (Morrison equation): […]
vi = K1 −−([ ] [ ]ET+IT+Ki)−([ ] [ ]ET+IT+i)[ ] [ ]TIE4T
LdMetRS Mode of Inhibition Studies
To establish the mode of inhibition of DDD806905, data sets (generated using the BIOMOL® Green assay platform previously described) were collected by varying both the inhibitor and substrate concentrations. Using GraFit v6.0 (Erithacus Software) each data set was individually fitted to the Michaelis-Menten equation or the modified high substrate inhibition Michaelis-Menten equation described above (equation 2), and the resulting Lineweaver-Burk plots were examined for diagnostic […]
Data sets were then globally fitted to the appropriate model (with equations 4 and 5 used for […]
If more than one model appeared possible, then data were fitted to both and examined for significance using the F-test function in GraFit.

Compound | IC50
Cc1cc(C)c2cc(CNCCCNc3nc4ccccc4[nH]3)[nH]c2c1 [Compound 12] | 5.6 µM
Cc1c(CNCCCNc2nc3ccccc3[nH]2)[nH]c2cc(Cl)cc(Cl)c12 [Compound 4] | 2.8 µM
OCc1c(Cl)cc(Cl)cc1CNCCCNc1nc2ccccc2[nH]1 [Compound 8] | 47 µM
COc1cc(C(F)(F)F)cc2[nH]c(CNCCCNc3nc4ccccc4[nH]3)cc12 [Compound 9] | > 100 µM
Clc1ccc(Cl)c2[nH]c(CNCCCNc3nc4ccccc4[nH]3)cc12 [Compound 3] | 69 µM
CCOc1c(Br)cc(Cl)cc1CNCCCNc1nc2ccccc2[nH]1 [Compound 16] | 5.9 µM
FC(F)(F)c1cc(C(F)(F)F)c2cc(CNCCCNc3nc4ccccc4[nH]3)[nH]c2c1 [Compound 5] | 46 µM
CCOc1c(Cl)cc(Cl)cc1CNCCCNc1nc2ccccc2[nH]1 [Compound 15] | 5.4 µM
COc1cccc2[nH]c(NCCCNCc3cc(Br)cc(Br)c3)nc12 [Compound 7] | 79 µM
OCCn1c(CNCCCNc2nc3ccccc3[nH]2)cc2c(Cl)cc(Cl)cc21 [Compound 17] | 0.38 µM
CCOc1c(CNCCCNc2nc3ccccc3[nH]2)cc(Br)cc1OC [Compound 13] | 37 µM
